Test results: ChEMBL document CHEMBL5244260, “Aldose reductase and protein tyrosine phosphatase 1B inhibitors as a promising therapeutic approach for diabetes mellitus” (Eur J Med Chem, 2020)
Blank lines part the entries; values can stand above or below the compound they belong to.

Assays:
[1] = target: Aldo-keto reductase family 1 member B1 (Homo sapiens, UniProt P15121); test: Inhibition of ALR2 (unknown origin)
[2] = Inhibition of ALR2 in calf lens using D,L-glyceraldehyde as substrate in presence of NADPH by spectrophotometric assay; type: tissue-based, Bos taurus
[3] = target: T1, Tyrosine-protein phosphatase non-receptor type 1 (Homo sapiens, UniProt P18031); test: Inhibition of PTP1B (unknown origin)
T1 sequence (P18031 whole entry): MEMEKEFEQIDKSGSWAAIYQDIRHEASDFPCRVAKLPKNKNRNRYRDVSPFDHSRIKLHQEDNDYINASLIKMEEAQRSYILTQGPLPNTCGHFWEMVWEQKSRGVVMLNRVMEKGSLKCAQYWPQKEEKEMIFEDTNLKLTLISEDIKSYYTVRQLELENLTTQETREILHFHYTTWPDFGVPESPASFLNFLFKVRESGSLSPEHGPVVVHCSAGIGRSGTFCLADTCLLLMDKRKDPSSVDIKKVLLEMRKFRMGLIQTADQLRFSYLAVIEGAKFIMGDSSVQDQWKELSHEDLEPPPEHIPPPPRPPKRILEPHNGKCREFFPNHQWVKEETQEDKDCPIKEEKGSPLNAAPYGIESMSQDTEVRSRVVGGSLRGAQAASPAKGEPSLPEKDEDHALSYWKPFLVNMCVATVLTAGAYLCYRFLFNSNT

[4] = target: T1, Tyrosine-protein phosphatase non-receptor type 1; test: Inhibition of human PTP1B (1 to 411 residues) expressed in Escherichia coli BL21 (DE3) using GNGDpYMPMSPKS as phosphopeptide substrate incubated for 30 mins by malachite green reagent assay
[5] = Inhibition of ALR2 in Sprague-Dawley rat lens using D,L-glyceraldehyde as substrate preincubated for 10 mins in presence of NADPH followed by substrate addition and measured after 5 mins by spectrophotometric assay; type: tissue-based
[6] = target: T1, Tyrosine-protein phosphatase non-receptor type 1; test: Inhibition of human PTP1B (1 to 321 residues) expressed in Escherichia coli using FDP as substrate
[7] = target: T2, Receptor-type tyrosine-protein phosphatase C (Homo sapiens, UniProt P08575); test: Inhibition of human CD45 (564 to […] residues) expressed in Escherichia coli using FDP as substrate incubated for 10 min
T2 sequence (P08575 whole entry): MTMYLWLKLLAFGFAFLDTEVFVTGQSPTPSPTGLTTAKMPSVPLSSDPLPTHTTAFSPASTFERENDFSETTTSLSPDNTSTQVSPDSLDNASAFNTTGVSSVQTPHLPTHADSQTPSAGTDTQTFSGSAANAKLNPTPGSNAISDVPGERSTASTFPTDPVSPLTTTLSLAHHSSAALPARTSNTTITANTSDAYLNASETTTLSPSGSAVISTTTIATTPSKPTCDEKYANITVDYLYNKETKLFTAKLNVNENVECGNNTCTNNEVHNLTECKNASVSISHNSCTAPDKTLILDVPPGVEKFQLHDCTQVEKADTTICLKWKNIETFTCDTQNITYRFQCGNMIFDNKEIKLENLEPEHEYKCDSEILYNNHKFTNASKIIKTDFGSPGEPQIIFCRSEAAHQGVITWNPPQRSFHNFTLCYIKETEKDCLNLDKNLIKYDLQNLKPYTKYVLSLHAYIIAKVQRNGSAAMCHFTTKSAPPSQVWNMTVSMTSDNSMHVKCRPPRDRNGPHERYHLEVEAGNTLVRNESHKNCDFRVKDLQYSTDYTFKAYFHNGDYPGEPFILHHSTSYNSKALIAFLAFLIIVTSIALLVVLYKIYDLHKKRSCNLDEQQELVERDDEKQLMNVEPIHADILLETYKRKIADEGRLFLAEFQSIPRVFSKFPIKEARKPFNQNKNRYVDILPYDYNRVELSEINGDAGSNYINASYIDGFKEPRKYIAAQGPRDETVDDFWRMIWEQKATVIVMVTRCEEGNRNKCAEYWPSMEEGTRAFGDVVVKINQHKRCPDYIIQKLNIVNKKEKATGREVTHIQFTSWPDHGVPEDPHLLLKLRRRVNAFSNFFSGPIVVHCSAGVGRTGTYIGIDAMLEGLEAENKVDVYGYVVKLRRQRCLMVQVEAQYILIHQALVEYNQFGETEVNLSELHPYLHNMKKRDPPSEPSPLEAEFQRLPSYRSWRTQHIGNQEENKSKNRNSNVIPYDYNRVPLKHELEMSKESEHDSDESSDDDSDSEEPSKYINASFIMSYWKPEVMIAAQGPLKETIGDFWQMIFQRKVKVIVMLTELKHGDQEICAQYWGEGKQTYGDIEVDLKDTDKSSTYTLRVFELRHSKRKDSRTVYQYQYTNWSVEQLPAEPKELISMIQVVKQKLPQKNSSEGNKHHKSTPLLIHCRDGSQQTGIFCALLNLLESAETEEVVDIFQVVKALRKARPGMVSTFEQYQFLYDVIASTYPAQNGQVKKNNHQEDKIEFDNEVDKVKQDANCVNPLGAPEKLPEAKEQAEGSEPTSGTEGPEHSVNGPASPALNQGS

Homo sapiens = species on record: Homo sapiens; test: Selectivity ratio of Ki for PTP1B (unknown origin) to Ki for TCPTP (unknown origin)
[8] = target: T1, Tyrosine-protein phosphatase non-receptor type 1; test: Inhibition of PTP1B (unknown origin) using OMFP as substrate by fluorescence assay
[9] = target: T1, Tyrosine-protein phosphatase non-receptor type 1; test: Inhibition of PTP1B (unknown origin) assessed as inhibition constant

IC50 [2]: 580 nM
SMILES: O=[N+]([O-])c1ccccc1Sc1ccc(O)cc1

IC50 [5]: 107 nM
SMILES: O=c1c(/C=C/c2ccc(O)cc2)nc2ccc(F)cc2n1-c1cnn(O)c1

IC50 [3]: 180 nM
SMILES: CCCCCCCCCCCCCCOc1ccccc1NC(=O)c1c(C(=O)O)cc(Cl)c(Cl)c1Cl

IC50 [6]: 6 nM
IC50 [7]: > 50000 nM
SMILES: CC(C)OC(=O)c1cc(CC(Cc2ccc(C(F)(F)P(=O)(O)O)cc2)(C(=O)c2ccccc2)c2ccccc2)ccc1C(F)(F)P(=O)(O)O (stereo not given)

IC50 [3]: 106 nM
SMILES: CCCCCCCCCCCCCCOc1ccccc1NC(=O)c1cccc(F)c1C(=O)O

IC50 [1]: 520 nM
SMILES: C/C(=N\NC(=S)Nc1cccc(Br)c1)c1ccc2c(c1)NC(=O)CO2

IC50 [3]: 870 nM
SMILES: CCCCCNC(=O)[C@H](Cc1cccc(OCC(=O)O)c1C(=O)O)NC(=O)[C@H](Cc1ccccc1)NC(=O)Oc1ccccc1

IC50 [3]: 300 nM
SMILES: C/C(=C\Cn1oc(=O)[nH]c1=O)c1cccc(OCc2nc(-c3ccc(C(F)(F)F)cc3)oc2-c2ccccc2)c1

IC50 [8]: 500 nM
SMILES: Cc1ccc(S(=O)(=O)N(Cc2ccc(C(=O)C(F)(F)P(=O)(O)O)cc2)Cc2ccc(C(=O)C(F)(F)P(=O)(O)O)cc2)cc1

The next lines start with the compound.

SMILES: Cc1cccc(-c2nn(-c3ccccc3)cc2/C=C2\SC(=S)N(c3ccc(C(=O)NCC(=O)O)cc3)C2=O)c1
IC50 [1]: 60 nM

SMILES: CCCCCCCCc1ccc(-n2c(C)ccc2-c2ccc(O[C@@H](Cc3ccccc3)C(=O)O)cc2)cc1
IC50 [3]: 90 nM

SMILES: O=C(O)CCCCCO/N=C(\c1ccnnc1)c1cccc(C(F)(F)F)c1
IC50 [2]: 10000 nM

SMILES: O=C1CN(c2ccc(-c3ccc[nH]3)cc2O)S(=O)(=O)N1
IC50 [4]: 80 nM

SMILES: CCc1cc(CC(NC(C)=O)C(=O)NCCCCC(=O)N[C@@H](CCSC)C(=O)O)ccc1N(C(=O)C(=O)O)c1ccccc1C(=O)O (stereo not given in full)
IC50 [3]: 77 nM

SMILES: CCCCCCCC/C(=C/Cn1oc(=O)n(CC(=O)O)c1=O)c1cccc(OCc2nc(-c3ccc(C(F)(F)F)cc3)oc2C)c1
IC50 [3]: 120 nM

SMILES: CC(C)(C)OC(=O)COc1ccc(CC2=C(c3c[nH]c4ccccc34)c3ccccc3C(=O)C2=O)cc1
IC50 [3]: 650 nM

SMILES: CCCCCCCC/C(=C\Cn1oc(=O)[nH]c1=O)c1cccc(OCc2nc(-c3ccc(C(F)(F)F)cc3)oc2C)c1
IC50 [3]: 400 nM

SMILES: O=C(c1ccccc1)C(Cc1ccc(C(F)(F)P(=O)(O)O)c(Br)c1)c1ccccc1 (stereo not given)
IC50 [6]: 6 nM
IC50 [7]: > 50000 nM

SMILES: O=C(O)C(=O)Nc1sc2c(c1C(=O)O)CCN(CCc1ccccc1)C2
Ratio Ki (Homo sapiens): 2

SMILES: O=C(c1ccccc1)C(Cc1ccc(C(F)(F)P(=O)(O)O)cc1)(Cc1ccc(C(F)(F)P(=O)(O)O)cc1)c1ccccc1
IC50 [6]: 6 nM
IC50 [7]: > 50000 nM

SMILES: COc1cccc2c1C=CC1CC(=O)N(/C=C/CC(=O)O)N=C21 (stereo not given)
IC50 [2]: 3900 nM

SMILES: CCc1cc(Br)ccc1S(=O)(=O)N(Cc1ccc(C(=O)C(F)(F)P(=O)(O)O)cc1)Cc1ccc(C(=O)C(F)(F)P(=O)(O)O)cc1
IC50 [8]: 500 nM

SMILES: COC(=O)c1c(O)cccc1OC/C=C/c1cccc(-c2onc(C(=O)O)c2CO)c1
Ki [9]: 920 nM
Ratio Ki (Homo sapiens): 20

SMILES: Oc1c(Br)cc(-c2ncc(-c3ccccc3)s2)c(Br)c1O
IC50 [3]: 540 nM

SMILES: CCCCCCCC/C(=C\Cn1oc(=O)n(CC(=O)O)c1=O)c1cccc(OCc2nc(-c3ccc(C(F)(F)F)cc3)oc2C)c1
IC50 [3]: 160 nM

SMILES: COc1ccc2cc(O)c(N3CC(=O)NS3(=O)=O)cc2c1
IC50 [4]: 80 nM
